The subject of series [1] is transgenic GFAP-GFP mice (SNpc and striatum). The series can be described thus: Brain cryosections: tyrosine hydroxylase (TH) immunohistochemistry. In kind it is in vivo, mouse. To be noted: a day after administration, vs saline. The protocol: (§1) The test compounds 2′-CH3-MPTP (M103), KA (K0250) and IDPN (317306) were purchased from Sigma-Aldrich (St. Louis, Mo., USA). Each mouse in the treatment group received either 4 intraperitoneal (ip) injections of 2′-CH3-MPTP (15 mg/kg in saline, ip, once every 2 hours), a single injection of KA (25 mg/kg in saline, ip) or 3 injections of IDPN (500 mg/kg, ip, once daily). For each neurotoxicant-treated group (n=3), saline was used as a vehicle for the control group (n=3). Retinal imaging was subsequently performed over a period of 14 days.
(§2) Retina wholemount and immunohistochemistry (IHC): After perfusing the mice with 1×PBS, followed by 4% fresh paraformaldehyde (in 1×PBS, pH 7.4), the brains were harvested and the eyes enucleated. The eyes were fixed immediately in 4% paraformaldehyde overnight at 4° C., after which they were dissected at the equator with the lens and vitreous removed. The retina was then dissected free from the choroid and sclera and whole mounted on a glass slide. Whole retina was mounted with Vectorshield mounting medium for fluorescence (Vector Laboratories, Inc., Burlingame, Calif., USA; H1000). The brains were first fixed in 4% paraformaldehyde for 4 hr at 4° C. and soaked in 30% sucrose at 4° C. overnight. The processed brain tissues were embedded in OTC freezing medium for sectioning on a cryostat (Leica Microsystems, Nussloch GmbH; CM-3050S). […]

The subject of series [2] is transgenic GFAP-GFP mice (glia of optic disc and central retina). The experiment in a line: In vivo scanning laser opthalmoscope (SLO) imaging of GFP fluorescence in the optic disc after neurotoxicant injection. Details: species or system mouse. The note with it: for time point of maximum GFP fluorescence around the fringe of the optic disc: adult GFAP-GFP mice, ip neurotoxicant, SLO imaging over 14 days; for retinal gliosis: neurotoxicant-treated GFAP-GFP mice, summary statement.
Description: Transgenic GFAP-GFP mice: The generation and genotyping of the transgenic GFAP-GFP mice were done as previously described (Zhuo et al., 1997). Adult mice (8-10 weeks old) in the FVB/N background were used in the present study. Animal husbandry was provided by National University of Singapore animal holding unit. The experimental protocol covering the current study was approved by the Institutional Animal Care and Use Committee.
as §1
Preparation of Animals: Mice were Anaesthetized by Ip Injections with 0.15 ml/10 g body weight of Avertin (1.5% 2,2,2-tribromoethanol; T48402) purchased from Sigma-Aldrich (St. Louis, Mo., USA), and their pupils dilated with a drop of 0.5% Cyclogyl® sterile ophthalmic solution (cyclopentolate hydrochloride, Alcon®, Puurs, Belgium). Custom-made PMMA hard contact lenses (from Cantor & Nissel (Northamptonshire, UK) were used to correct optical aberration and to avoid dehydration of the mouse eyes. Careful examination by an eye specialist before scanning laser opthalmoscope imaging ruled out the presence of any corneal or lens opacities.
Scanning laser opthalmoscope (SLO) imaging: For the work described here, the second version of Heidelberg Retina Angiograph (HRA II) scanning laser opthalmoscope (Heidelberg Engineering, Dossenheim, Germany) modified for use on mice was employed. The scanning laser opthalmoscope (SLO) is a fundus imaging technique based on the scanning of the fundus with a laser beam from a point source, while the reflected light is detected by a photomultiplier. Incident and reflected light follow a co-axial path. Therefore, more light can pass through small eyes than with conventional fundus cameras. Several reports of SLO imaging in rats (Hossain et al., 1998; Khoobehi and Peyman, 1999; Cordeiro et al., 2004; Genevois et al., 2004) and mice (Jaissle et al., 2001; Xu et al., 2003) have been published, with the latest study by (Seeliger et al., 2005) and (Paques et al., 2006) in evaluating mouse fundus with the first version of the HRA (or HRA I). The HRA II features the two Argon lasers in the short wavelength range (488 nm and 514 nm) and two infrared diode lasers in the long wavelength range (795 nm and 830 nm). The 488 and 795 nm lasers are used for fluorescein and indocyanine green angiography respectively. Appropriate barrier filters of 500 nm and 800 nm, respectively, remove the reflected light with unchanged wavelength and allow only the light emitted by the dye upon stimulation to pass through. The finest definition is 768×768 pixels at an optical resolution of 10 μm/pixel and coupled with three fields of view (nominal values of 15°, 20° and 30°). The focus is adjustable over a +12/−12 diopters range using step increments of 0.25 diopters. A video acquisition mode (48 ms to 96 ms per image) is available. Within any area of interest, a stack of tomographic images (z-scans) up to a maximum depth of 8 mm can be automatically acquired.

Series [3] has as its system transgenic GFAP-GFP mice (hippocampus, substantia nigra, striatum, olfactory bulb). The series can be described thus: Brain cryosections: transgenic GFP and GFAP immunohistochemistry (gliosis). In kind it is in vivo, mouse. The protocol:
as §1
Retina wholemount and immunohistochemistry (IHC): After perfusing the mice with 1×PBS, followed by 4% fresh paraformaldehyde (in 1×PBS, pH 7.4), the brains were harvested and the eyes enucleated. The eyes were fixed immediately in 4% paraformaldehyde overnight at 4° C., after which they were dissected at the equator with the lens and vitreous removed. The retina was then dissected free from the choroid and sclera and whole mounted on a glass slide. Whole retina was mounted with Vectorshield mounting medium for fluorescence (Vector Laboratories, Inc., Burlingame, Calif., USA; H1000). The brains were first fixed in 4% paraformaldehyde for 4 hr at 4° C. and soaked in 30% sucrose at 4° C. overnight. The processed brain tissues were embedded in OTC freezing medium for sectioning on a cryostat (Leica Microsystems, Nussloch GmbH; CM-3050S). Coronal cryosections (10 μm) of the hippocampus (bregma −1.94 mm, interaural 1.86 mm), SNpc (bregma −3.16 mm, interaural 0.64 mm) and olfactory bulb (bregma 4.28 mm, interaural 8.08 mm) according to the Atlas of Mouse Brain (Franklin and Paxinos, 2001), together with the retina wholemounts were used for IHC using rabbit polyclonal antibodies (in 1:200 dilution) against GFAP (Dako, Z0334). Sections of the SNpc and striatum (bregma 0.62 mm, interaural 4.42 mm) were used for IHC using rabbit polyclonal antibodies (in 1:200 dilution) against tyrosine hydroxylase (TH; Chemicon, Calif., USA; Ab-152). The bound primary antibodies on the tissue sections were stained with a goat IgG conjugated to Texas-red (Abeam, Ab7088) at 1:100 dilution for 2 hr at room temperature, and visualized using confocal microscopy (LSM 510 META, Carl Zeiss Microimaging GmbH, Jena Germany).

A further series has as its system retinal Müller cells. The note with it: injected into the vitreous of the eye; cited from earlier work.
Series [4] concerns transgenic GFAP-GFP mice (whole-mount retina). The series can be described thus: Retina whole-mount: transgenic GFP and GFAP immunohistochemistry. To be noted: 7 days after a single ip injection (25 mg/kg), vs saline. The class given is in vivo, mouse. The procedure:
as §1, §2

Series [5] has as its system neuronal and glial cells in the retina. The note with it: cited from earlier work.
Where [6] appears, read: a day after administration, vs saline.
Setting [7] is: 7 days after administration, vs saline.

“Also recorded” adds a separate entry of the source.

As for `Cc1ccccc1C1=CCN(C)CC1` [2′-CH3-MPTP, 1-methyl-4(2′-methylphenyl)-1,2,3,6-tetrahydropyridine], in series [1], the “TH-immunoreactive midbrain dopaminergic neurons in the SNpc” value was “observable tyrosine hydroxylase (TH) depletion; also recorded: marked depletion” and the “level of TH expression in the striatum” value is listed as “no change in TH expression could be visually observed; also recorded: no detectable changes”. Moreover, in series [2], the “time point of maximum GFP fluorescence around the fringe of the optic disc” value (“time point” for short) stood at 1 days and the retinal gliosis entry is “elicits retinal gliosis”. Moreover, in series [2] (after administration of the neurotoxicant (4 x 15 mg/kg ip)), the “time of maximal increase in GFP expression in the optic disc” value turned out to be 24 h. Further, in series [3] (setting [6]), the “GFP / gliosis in striatal astrocytes” value is on record as “acute gliosis; also recorded: substantial GFP increase” and the “gliosis in the substantia nigra” value is reported as “gliosis occurs extensively”. Besides, the “GFP and GFAP expression in activated astrocytes of the brain” value in series [3] (a day after systemic administration) was “an increase in GFP and to a lesser extent, GFAP expression”.

Take `N#CCCNCCC#N` [IDPN, 3,3-iminodipropionitrile]: in series [2], the “time point” value was determined as 7 days and the retinal gliosis result is recorded as “elicits retinal gliosis”. In addition, in series [3] (7 days after administration (3 x 500 mg/kg ip), vs saline), the “gliosis / GFP-positive astrocytes co-localizing with GFAP-immunoreactive cells in the glomerular layer (GL) of the olfactory bulb” value is “acute gliosis; also recorded: markedly more GFP-positive astrocytes”. Also, the “GFAP-positive cells in the granular cell layer (GCL) of the olfactory bulb” value in series [3] (setting [7]) is recorded as “strong increase of GFAP-positive cells”.

In the case of `C=C(C)[C@H]1CN[C@H](C(=O)O)[C@H]1CC(=O)O` [KA, kainic acid], the “GFAP in the retinal Müller cells” value in the series with retinal Müller cells is reported as “up-regulation of GFAP”. Also, in series [2], the “time point” value turned out to be 7 days and the retinal gliosis entry is “elicits retinal gliosis”. Also, the “gliosis in the nerve fiber layer (NFL) of whole-mount retina (transgenic GFP and endogenous GFAP)” value in series [4] is “severe gliosis”. Also, the “level of GFP and GFAP expression in the entire hippocampus area (CA1, CA3, dentate gyrus)” value in series [3] (7 days after administration, compared to saline control) is “extremely high level of GFP and GFAP expression”. Also, the “gliosis in astrocytes of the hippocampus (GFP and GFAP)” value in series [3] (setting [7]) was “severe reactive gliosis”.

For the compound `CN1CC=C(c2ccccc2)CC1` [MPTP, 1-methyl-4-phenyl-1,2,3,6-tetrahydropyrine], in series [5] (several days after injection), the “GFAP immunoreactivity of the glial cells of the retina” value is given as “increased”. Further, the “microglia in the inner outer retina” value in series [5] (within a week after systemic injection in mice) is on record as “microglia activation was observed”.

The values above are taken from patent publication US20100146646A1, “METHOD OF MONITORING RETINOPATHY” (priority 2007, published 2010).
